Activity data for 68 compounds are collected here from patent publication US10464896B2, “Efflux-pump inhibitors and therapeutic uses thereof” (Basilea Pharmaceutica International AG, priority 2015, dated 2019).

Structures are written as SMILES.

In the first experiment the test system is E. coli ATCC25922. Nature of the experiment: Antibacterial activity in combination with minocycline (growth inhibition). In kind it is cell-based. The settings on record: Escherichia coli, ATCC25922, compound at 25 μM; minocycline 0.25 μg/mL; OD625 23 h minus 1 h; read-out: residual growth of E. coli ATCC25922 (% of uninhibited control) with minocycline. The procedure:
Antibacterial activity in combination with minocycline or with linezolid
Inhibition of growth was measured with E. coli ATCC25922 and P. aeruginosa PAO1 in a 96-well plate format. Cation-adjusted Müller-Hinton broth (caMHB) was inoculated with an overnight culture and incubated at 37° C. on a shaker until OD625 reached 0.6 to 0.7. Density was adjusted to OD600=0.5 by addition of caMHB. 35 μL of the suspension were diluted to 35 mL with caMHB and supplemented with minocycline at the subinhibitory doses of 0.25 μg/mL for E. coli and 8 μg/mL for P. aeruginosa or with linezolid at the subinhibitory dose of 128 μg/mL for E. coli and P. aeruginosa. Each well contained 1 μL of test compound in 100 μL caMHB with minocycline or with linezolid.
Plates were incubated at 37° C. on a plate shaker. OD625 was measured at 1 h, 6 h, and at 23 h.
The difference between OD at 23 h and at 1 h was taken as measure for cell density and compared to controls without inhibitor (i.e. uninhibited control). Results were expressed as residual growth (% of uninhibited control). Enhancement of minocycline or linezolid activity caused reduced residual growth.
For the compound `Clc1ccc(COc2cccc(CNCC3CNC3)c2)c(Br)c1` [Example 18], the activity at 25 µM was not above 10%.

As to `Clc1ccc(-c2ccc(CNCC3CNC3)cc2)cc1` [Example 25], the activity at 25 µM is not above 10%.

As to `CC(C)(c1ccccc1)c1ccc(OCCCNCC2CNC2)cc1` [Example 29], the activity at 25 µM was not above 10%.

In the case of `Clc1ccc(COc2cccc(CNCC3CCNC3)c2)c(Br)c1` (centres unmarked) [Example 30], the activity at 25 µM is not above 10%.

For `CC(C)(c1ccccc1)c1ccc(OCCCNCC2CCNCC2)cc1` [Example 31], the activity at 25 µM was not above 10%.

`CC(C)(c1ccccc1)c1ccc(OCCCNCC2CCNC2)cc1` (centres unmarked) [Example 32]: the activity at 25 µM is not above 10%.

For the compound `Clc1ccc(COc2ccccc2CNCC2CNC2)c(Br)c1` [Example 33], the activity at 25 µM is not above 10%.

As for `Fc1ccc(COc2cccc(CNCC3CNC3)c2)c(F)c1` [Example 34], the activity at 25 µM is not above 10%.

For `Clc1ccc(COc2cccc(CNCC3CCNCC3)c2)c(Br)c1` [Example 35], the activity at 25 µM was not above 10%.

For the compound `Clc1cc(CNCC2CNC2)cc(OCc2ccc(Cl)cc2Br)c1` [Example 37, N-(azetidin-3-ylmethyl)-1-[3-[(2-bromo-4-chloro-phenyl)methoxy]-5-chloro-phenyl]methanamine], the activity at 25 µM is not above 10%.

As for `Clc1ccc(OCc2cccc(CNCC3CNC3)c2)c(Br)c1` [Example 38], the activity at 25 µM is not above 10%.

For `CC(C)(c1ccccc1)c1ccc(OCCNCC2CCNCC2)cc1` [Example 39], the activity at 25 µM is not above 10%.

Turning to `Clc1cc(Cl)cc(COc2cccc(CNCC3CNC3)c2)c1` [Example 40], the activity at 25 µM was not above 10%.

On to `Brc1ccccc1COc1cccc(CNCC2CNC2)c1` [Example 41], for which the activity at 25 µM is not above 10%.

Take `CC(C)(c1ccccc1)c1ccc(OCCNCC2CCNC2)cc1` (centres unmarked) [Example 42]: the activity at 25 µM is not above 10%.

Turning to `Fc1cc(F)cc(COc2cccc(CNCC3CNC3)c2)c1` [Example 43], the activity at 25 µM was not above 10%.

For `CC(C)(c1ccccc1)c1ccc(CNCC2CCNC2)cc1` (centres unmarked) [Example 44], the activity at 25 µM was not above 10%.

For the compound `CC(C)(c1ccccc1)c1ccc(CNCC2CNC2)cc1` [Example 45], the activity at 25 µM was not above 10%.

Take `CC(C)(c1ccccc1)c1ccc(CNCC2CCNCC2)cc1` [Example 46]: the activity at 25 µM is not above 10%.

Regarding `FC(F)(F)c1cc(Br)ccc1COc1cccc(CNCC2CNC2)c1` [Example 47], the activity at 25 µM was not above 10%.

For the compound `FC(F)(F)c1ccc(COc2cccc(CNCC3CNC3)c2)c(Cl)c1` [Example 49], the activity at 25 µM was not above 10%.

For the compound `Clc1ccc(CSc2cccc(CNCC3CNC3)c2)c(Br)c1` [Example 51, N-(azetidin-3-ylmethyl)-1-[3-[(2-bromo-4-chloro-phenyl)methylsulfanyl]phenyl]methanamine], the activity at 25 µM is not above 10%.

In the case of `Fc1cc(Br)ccc1COc1ccc(CNCC2CCNCC2)cc1` [Example 52], the activity at 25 µM is not above 10%.

For the compound `Clc1ccc(OCc2cccc(CNC3CCNCC3)c2)c(Br)c1` [Example 53], the activity at 25 µM was not above 10%.

With `Fc1cc(Br)ccc1COc1ccc(CNCC2CCNC2)cc1` (centres unmarked) [Example 55], the activity at 25 µM was not above 10%.

For `Fc1cc(Br)ccc1COc1ccc(CNCC2CNC2)cc1` [Example 56], the activity at 25 µM is not above 10%.

Regarding `Clc1ccc(OCc2cccc(CCNCC3CNC3)c2)c(Br)c1` [Example 58], the activity at 25 µM was not above 10%.

For `CC(C)(C)c1ccc(COc2ccc(CNC3CCNCC3)cc2)cc1` [Example 59], the activity at 25 µM is not above 10%.

For the compound `Fc1cc(Br)ccc1COc1ccc(CNC2CCNCC2)cc1` [Example 60], the activity at 25 µM was not above 10%.

With `Clc1ccc(/C=C/c2cccc(CNCC3CNC3)c2)c(Br)c1` [Example 61], the activity at 25 µM was not above 10%.

As for `Clc1ccc(-c2ccc(CNCC3CCNC3)cc2)c(Br)c1` (centres unmarked) [Example 62], the activity at 25 µM is not above 10%.

Turning to `Clc1ccc(CCc2cccc(CNCC3CNC3)c2)c(Br)c1` [Example 64, N-(azetidin-3-ylmethyl)-1-[3-[2-(2-bromo-4-chloro-phenyl)ethyl]phenyl]methanamine], the activity at 25 µM is not above 10%.

Regarding `Clc1ccc(OCc2cccc(CNCC3CNCCO3)c2)c(Br)c1` (centres unmarked) [Example 65], the activity at 25 µM was not above 10%.

As to `Clc1ccc(COc2ccc(CNCC3CNC3)cc2)cc1Cl` [Example 66], the activity at 25 µM is not above 10%.

`Clc1ccc(COc2ccc(CNCC3CCNCC3)cc2)cc1Cl` [Example 67]: the activity at 25 µM is not above 10%.

On to `Clc1ccc(-c2ccc(CNCC3CNC3)cc2)c(Br)c1` [Example 68, N-(azetidin-3-ylmethyl)-1-[4-(2-bromo-4-chloro-phenyl)phenyl]methanamine], for which the activity at 25 µM is not above 10%.

Consider `Clc1ccc(COc2ccc(CNCC3CCNC3)cc2)cc1Cl` (centres unmarked) [Example 70], for which the activity at 25 µM was not above 10%.

On to `Brc1ccccc1COc1ccc(CNC2CCNCC2)cc1` [Example 71], for which the activity at 25 µM is not above 10%.

For the compound `Brc1ccccc1COc1ccc(CNCC2CCNCC2)cc1` [Example 72], the activity at 25 µM is not above 10%.

Consider `Clc1ccc(OCc2cccc(CCCNCC3CNC3)c2)c(Br)c1` [Example 73], for which the activity at 25 µM was not above 10%.

For the compound `Clc1ccc(-c2cccc(CNCC3CNC3)c2)c(Br)c1` [Example 75], the activity at 25 µM was not above 10%.

As to `Brc1ccccc1COc1ccc(CNCC2CCNC2)cc1` (centres unmarked) [Example 80], the activity at 25 µM was not above 10%.

For the compound `Clc1ccc(Oc2ccc(CNCC3CNC3)cc2)c(Br)c1` [Example 81], the activity at 25 µM is not above 10%.

For the compound `Clc1ccc(Oc2ccccc2CNCC2CCNC2)c(Br)c1` (centres unmarked) [Example 84], the activity at 25 µM is not above 10%.

Turning to `N#Cc1ccc(COc2ccc(CNCC3CNC3)cc2)c(Br)c1` [Example 85], the activity at 25 µM was not above 10%.

For `Clc1ccc(Oc2cccc(CNCC3CCNC3)c2)c(Br)c1` (centres unmarked) [Example 88, 1-[3-(2-bromo-4-chloro-phenoxy)phenyl]-N-(pyrrolidin-3-ylmethyl)methanamine], the activity at 25 µM was not above 10%.

As for `Clc1ccc(Oc2cccc(CNCC3CNC3)c2)c(Br)c1` [Example 90], the activity at 25 µM is not above 10%.

In the case of `c1ccc(-c2cccc(COc3cccc(CNCC4CNC4)c3)c2)cc1` [Example 94], the activity at 25 µM was not above 10%.

As for `c1ccc(-c2ccc(COc3cccc(CNCC4CNC4)c3)cc2)cc1` [Example 95], the activity at 25 µM is not above 10%.

As for `Clc1ccc(OCCOc2ccc(CNCC3CNC3)cc2)c(Br)c1` [Example 96], the activity at 25 µM is not above 10%.

For `Clc1ccc(COc2ccc(Br)c(CNCC3CNC3)c2)c(Br)c1` [Example 97], the activity at 25 µM is not above 10%.

On to `Fc1cc(CNCC2CNC2)cc(OCc2ccc(Cl)cc2Br)c1` [Example 103], for which the activity at 25 µM is not above 10%.

As to `FC(F)(F)c1cc(CNCC2CNC2)cc(OCc2ccc(Cl)cc2Br)c1` [Example 104], the activity at 25 µM was not above 10%.

Take `CC(NCC1CNC1)c1ccc(OCc2ccc(Cl)cc2Br)cc1` (centres unmarked) [Example 105]: the activity at 25 µM was not above 10%.

Turning to `C=CCOc1cc(CNCC2CNC2)cc(OCc2ccc(Cl)cc2Br)c1` [Example 106], the activity at 25 µM was not above 10%.

Regarding `C=CCOc1cc(CNCC2CCNC2)cc(OCc2ccc(Cl)cc2Br)c1` (centres unmarked) [Example 108], the activity at 25 µM is not above 10%.

As to `C=CCOc1cc(CNCC2CCNCC2)cc(OCc2ccc(Cl)cc2Br)c1` [Example 109], the activity at 25 µM was not above 10%.

With `Clc1ccc(COc2cccc(CCCNCC3CNC3)c2)c(Br)c1` [Example 111], the activity at 25 µM was not above 10%.

With `Clc1ccc(COc2cccc(CCCNCC3CCNC3)c2)c(Br)c1` (centres unmarked) [Example 112], the activity at 25 µM is not above 10%.

For the compound `Clc1ccc(COc2ccccc2CCCNCC2CNC2)c(Br)c1` [Example 113], the activity at 25 µM is not above 10%.

For `Clc1ccc(COc2ccccc2CCCNCC2CCNC2)c(Br)c1` (centres unmarked) [Example 114], the activity at 25 µM was not above 10%.

Still in this experiment, the particulars now being: Escherichia coli, ATCC25922, compound at 50 μM; minocycline 0.25 μg/mL; OD625 23 h minus 1 h; read-out: residual growth of E. coli ATCC25922 (% of uninhibited control) with minocycline.
Take `Clc1ccc(COc2ccccc2CNCC2CCNCC2)cc1` [Example 5]: the activity at 50 µM is not above 50%.

Turning to `Clc1ccccc1COc1ccccc1CNCC1CCNCC1` [Example 8], the activity at 50 µM was not above 50%.

Take `Clc1ccc(COc2cccc(CNCC3CNC3)c2)cc1` [Example 13]: the activity at 50 µM was not above 50%.

Consider `Clc1ccc(COc2ccccc2CNCC2CNC2)cc1` [Example 22], for which the activity at 50 µM is not above 50%.

For the compound `Clc1ccc(COc2cccc(NCC3CNC3)c2)cc1` [Example 23, N-(azetidin-3-ylmethyl)-3-[(4-chlorophenyl)methoxy]aniline], the activity at 50 µM was not above 50%.

With `Clc1ccc(-c2ccccc2CNCC2CCNC2)c(Br)c1` (centres unmarked) [Example 69], the activity at 50 µM is not above 50%.

Still in this experiment, the particulars now being: Escherichia coli, ATCC25922, read-out: residual growth of E. coli ATCC25922 (% of uninhibited control) with minocycline, compound at 25 μM; minocycline 0.25 μg/mL; OD625 23 h minus 1 h.
For the compound `Clc1ccc(C=CCc2cccc(CNCC3CNC3)c2)c(Br)c1` (mixture of isomers) [Example 168, N-(azetidin-3-ylmethyl)-1-[3-[(Z/E)-3-(2-bromo-4-chloro-phenyl)allyl]phenyl]methanamine], the activity at 25 µM was not above 10%.
